From patent US20180169019A1, “PROCESS FOR THE PREPARATION OF POROUS MICROPARTICLES” (BAYER PHARMA AKTIENGESELLSCHAFT, priority 2015, published 2018)

Assay: Solubility in water and organic solvents
Format: physicochemical

O=C(O)CCCCN(CCc1ccccc1OCc1ccc(CCc2ccccc2)cc1)Cc1ccc(C(=O)O)cc1 [Cinaciguat, 4-[((4-carboxybutyl)-{2-[(4-phenethylbenzyl)oxy]phenethyl}amino)methyl]benzoic acid]
solubility in acetone: slightly soluble
solubility in ethanol, methanol, ethyl acetate: very slightly soluble
solubility in water and dichloromethane, acetonitrile: practically insoluble
